Results on 37 compounds are retold here after patent US11897862B2 (Gilead Sciences, Inc., priority 2022, dated 2024).

The structures appear in SMILES notation.

Assay [1] deals with T1, IKZF1 (Homo sapiens, UniProt Q13422+Q96SW2).
T1 construct: expressed in transfected cells
Kind of assay: HEK293 HiBiT in vitro degradation of IKZF1. Type of assay: cell-based. Particulars: for DC50 / IKZF1 Dmax: HEK293 HiBiT; for DC50: 18-24 hr incubation, normalized to DMSO control, read-out: IKZF1 EC50; for Dmax: HEK293, HEK293 HiBiT; for Dmax / IKZF1 Dmax: maximum degradation at the highest concentration tested. In a few lines:
(§1)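 Degradation was scored as loss of HiBiT signal from C-terminally tagged IKZF1, IKZF2 or SALL4 in doxycycline-induced Flp-In T-REx HEK293 cells after overnight (18-24 h) compound treatment. EC50 and Dmax were derived from the luminescence.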

Assay [2] concerns the target IKZF2 (Homo sapiens, UniProt Q96SW2+Q9UKS7). In words: HEK293 HiBiT in vitro degradation of IKZF2. It counts as cell-based. More on the design: expressed in transfected cells. Particulars: for Dmax: HEK293, HEK293 HiBiT; for Dmax / IKZF2 Dmax: maximum degradation at the highest concentration tested; for DC50 / IKZF2 Dmax: HEK293 HiBiT; for DC50: 18-24 hr incubation, normalized to DMSO control, read-out: IKZF2 EC50. The method, boiled down: as §1

T1 sequence (Q13422 whole entry): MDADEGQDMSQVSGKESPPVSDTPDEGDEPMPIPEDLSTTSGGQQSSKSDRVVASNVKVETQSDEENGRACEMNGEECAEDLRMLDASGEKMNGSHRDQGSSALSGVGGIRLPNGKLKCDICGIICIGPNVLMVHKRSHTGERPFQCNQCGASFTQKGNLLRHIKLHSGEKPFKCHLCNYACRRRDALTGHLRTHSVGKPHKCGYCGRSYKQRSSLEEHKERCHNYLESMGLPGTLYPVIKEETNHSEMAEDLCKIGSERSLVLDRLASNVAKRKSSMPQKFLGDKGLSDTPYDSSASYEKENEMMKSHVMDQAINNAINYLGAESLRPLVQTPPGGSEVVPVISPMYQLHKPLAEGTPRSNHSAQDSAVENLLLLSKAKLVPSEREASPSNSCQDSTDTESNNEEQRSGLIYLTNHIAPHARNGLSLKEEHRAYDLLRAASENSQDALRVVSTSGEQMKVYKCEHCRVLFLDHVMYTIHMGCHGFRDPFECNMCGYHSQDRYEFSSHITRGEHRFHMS
T1 sequence (Q96SW2 whole entry): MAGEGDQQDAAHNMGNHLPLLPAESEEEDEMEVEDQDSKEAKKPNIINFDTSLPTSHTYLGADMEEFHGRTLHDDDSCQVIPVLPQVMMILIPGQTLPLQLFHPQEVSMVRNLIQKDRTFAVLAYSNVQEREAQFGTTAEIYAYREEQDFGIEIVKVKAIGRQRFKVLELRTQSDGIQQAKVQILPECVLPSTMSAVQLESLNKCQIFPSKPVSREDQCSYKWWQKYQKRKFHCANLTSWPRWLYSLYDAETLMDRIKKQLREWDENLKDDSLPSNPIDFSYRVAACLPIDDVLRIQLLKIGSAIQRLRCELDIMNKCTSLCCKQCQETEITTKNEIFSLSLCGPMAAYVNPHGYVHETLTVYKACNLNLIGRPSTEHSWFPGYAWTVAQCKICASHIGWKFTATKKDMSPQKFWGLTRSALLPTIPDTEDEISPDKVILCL
T1 sequence (Q16531 whole entry partner): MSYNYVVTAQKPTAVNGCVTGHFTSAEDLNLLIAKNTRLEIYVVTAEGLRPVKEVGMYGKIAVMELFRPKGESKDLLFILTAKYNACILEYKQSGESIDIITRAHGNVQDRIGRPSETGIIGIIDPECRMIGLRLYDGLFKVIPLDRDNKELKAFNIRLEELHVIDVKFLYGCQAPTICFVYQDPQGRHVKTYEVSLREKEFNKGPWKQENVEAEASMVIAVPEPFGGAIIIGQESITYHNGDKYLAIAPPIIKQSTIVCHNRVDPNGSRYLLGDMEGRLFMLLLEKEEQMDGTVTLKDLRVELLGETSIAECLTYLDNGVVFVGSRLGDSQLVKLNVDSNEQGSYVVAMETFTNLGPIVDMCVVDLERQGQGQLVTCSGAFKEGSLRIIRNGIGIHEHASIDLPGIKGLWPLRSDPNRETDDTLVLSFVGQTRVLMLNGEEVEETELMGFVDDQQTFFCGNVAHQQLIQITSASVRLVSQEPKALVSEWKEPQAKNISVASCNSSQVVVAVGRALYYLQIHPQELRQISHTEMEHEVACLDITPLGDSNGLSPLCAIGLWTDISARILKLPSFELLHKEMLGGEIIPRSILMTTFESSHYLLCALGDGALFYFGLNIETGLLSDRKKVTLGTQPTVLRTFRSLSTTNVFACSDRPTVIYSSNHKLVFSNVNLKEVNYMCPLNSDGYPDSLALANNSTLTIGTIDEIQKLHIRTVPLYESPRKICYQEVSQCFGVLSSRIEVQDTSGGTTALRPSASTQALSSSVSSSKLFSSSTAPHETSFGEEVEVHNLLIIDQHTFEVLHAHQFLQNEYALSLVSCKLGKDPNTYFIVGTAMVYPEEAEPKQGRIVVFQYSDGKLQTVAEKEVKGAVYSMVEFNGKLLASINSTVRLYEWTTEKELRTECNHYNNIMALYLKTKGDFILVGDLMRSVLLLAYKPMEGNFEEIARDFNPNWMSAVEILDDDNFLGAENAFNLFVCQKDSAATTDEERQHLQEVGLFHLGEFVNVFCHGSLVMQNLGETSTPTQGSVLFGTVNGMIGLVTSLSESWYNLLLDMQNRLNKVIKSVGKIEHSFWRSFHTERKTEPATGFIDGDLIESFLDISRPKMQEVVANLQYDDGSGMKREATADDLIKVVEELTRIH
Sequence of IKZF2 (Q9UKS7 1-500 isoform Q9UKS7-2): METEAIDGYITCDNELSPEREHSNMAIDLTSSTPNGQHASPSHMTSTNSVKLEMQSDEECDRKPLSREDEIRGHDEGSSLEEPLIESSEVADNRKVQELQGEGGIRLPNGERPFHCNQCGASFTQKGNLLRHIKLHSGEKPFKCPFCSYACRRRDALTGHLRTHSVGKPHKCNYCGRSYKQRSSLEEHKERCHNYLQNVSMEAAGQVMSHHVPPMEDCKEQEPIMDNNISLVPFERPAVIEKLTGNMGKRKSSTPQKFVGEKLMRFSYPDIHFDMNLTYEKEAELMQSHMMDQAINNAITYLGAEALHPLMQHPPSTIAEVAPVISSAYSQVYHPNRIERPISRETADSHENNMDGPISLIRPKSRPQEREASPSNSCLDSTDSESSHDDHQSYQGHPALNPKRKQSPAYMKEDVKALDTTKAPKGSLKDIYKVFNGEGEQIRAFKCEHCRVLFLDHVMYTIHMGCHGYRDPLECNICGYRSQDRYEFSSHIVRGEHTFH
Sequence of IKZF2 (Q96SW2 whole entry): as the sequence (Q96SW2 whole entry) above
Sequence of IKZF2 (Q16531 whole entry partner): as the sequence (Q16531 whole entry partner) above

`COC(C)(C)CCN[C@H]1CCCC[C@@H]1Cc1ccc2c(c1)CN(C1CCC(=O)NC1=O)C2=O` (stereo partly shown) [Example 134]: the DC50 in assay [1] was > 1000 nM. Moreover, in assay [2], the maximal degradation (Dmax) turned out to be 97% and the DC50 came to 61 nM.
Turning to `O=C1CCC(N2Cc3cc(C[C@H]4CCCC[C@@H]4NCCCC(F)F)ccc3C2=O)C(=O)N1` (stereo partly shown) [Example 135], the Dmax in assay [1] was 24%; in assay [2], 93%. The DC50 in assay [1] was 77 nM; in assay [2], 16 nM.
Turning to `O=C1CCC(N2Cc3c(ccc(C[C@H]4CCCC[C@@H]4NC4CC5CCCC5C4)c3F)C2=O)C(=O)N1` (stereo partly shown) [Example 141], in assay [1], the Dmax is 53% and the DC50 was determined as 58 nM. Further, in assay [2], the Dmax was 98% and the DC50 turned out to be 2 nM.
On to `O=C1CCC(N2Cc3cc(C[C@H]4CCCC[C@@H]4NC4COc5ccccc5C4)ccc3C2=O)C(=O)N1` (stereo partly shown) [Example 143], for which, in assay [1], the DC50 is > 1000 nM. In addition, in assay [2], the Dmax was 94% and the DC50 worked out at 33 nM.
In the same order, the values of `CC1(C)CC(N[C@H]2CCCC[C@@H]2Cc2ccc3c(c2)CN(C2CCC(=O)NC2=O)C3=O)CC(C)(C)C1` (stereo partly shown) [Example 144] are > 1000 nM, 97% and 7 nM.
For `CC(c1ccc2c(c1)CN(C1CCC(=O)NC1=O)C2=O)[C@H]1CCCC[C@@H]1NC1CCC(F)(F)CC1` (stereo partly shown) [Example 147], the DC50 is > 1000 nM in assay [1] and 37 nM in assay [2]. Moreover, the Dmax in assay [2] was 75%.
In the case of `O=C1CCC(N2Cc3c(ccc(C[C@H]4OCCC[C@@H]4NCC4CCC(F)(F)CC4)c3F)C2=O)C(=O)N1` (stereo partly shown) [Example 149], in assay [1], the Dmax is 36% and the DC50 worked out at 45 nM. Further, in assay [2], the Dmax was found to be 71% and the DC50 is 46 nM.
On to `O=C1CCC(N2Cc3c(ccc(C[C@H]4OCCC[C@@H]4NCC4CC(F)(F)C4)c3F)C2=O)C(=O)N1` (stereo partly shown) [Example 150], for which, in assay [1], the DC50 is > 500 nM. In assay [2], the maximal degradation (Dmax) was 73% and the DC50 was 51 nM.
For the compound `O=C1CCC(N2Cc3c(ccc(C[C@H]4OCCC[C@@H]4NCC4CCC4)c3F)C2=O)C(=O)N1` (stereo partly shown) [Example 152], the DC50 in assay [1] is > 500 nM. Further, in assay [2], the Dmax worked out at 78% and the DC50 turned out to be 26 nM.
For `C[C@@]1(O)CC[C@H](NC2CCC(F)(F)CC2)[C@@H](Cc2ccc3c(c2)CN(C2CCC(=O)NC2=O)C3=O)C1` (stereo partly shown) [Example 154], the DC50 in assay [1] is > 500 nM; in assay [2] it was 114 nM. In addition, the Dmax in assay [2] is 90%.
`COC1CCC(NC2CCCOC2Cc2ccc3c(c2F)CN(C2CCC(=O)NC2=O)C3=O)CC1` (stereo not shown) [Example 156]: the DC50 in assay [1] was > 1000 nM. Moreover, in assay [2], the maximal degradation (Dmax) is 98% and the DC50 is 6 nM.
As to `O=C1CCC(N2Cc3c(ccc(C[C@H]4OCCC[C@@H]4NC4CC5(CCC5)C4)c3F)C2=O)C(=O)N1` (stereo partly shown) [Example 157], the values for the Dmax in assay [1] and in assay [2] were 35% and 92%, respectively. The values for the DC50 in assay [1] and in assay [2] were 61 nM and 8 nM, respectively.
As for `O=C1CCC(N2Cc3c(ccc(C[C@H]4OCCC[C@@H]4NC4CC5(CCCCC5)C4)c3F)C2=O)C(=O)N1` (stereo partly shown) [Example 158], in assay [1], the Dmax amounted to 50% and the DC50 is 72 nM. Moreover, in assay [2], the Dmax stood at 91% and the DC50 is 11 nM.
For the compound `CC1(C)OCC(N[C@H]2CCCC[C@@H]2Cc2ccc3c(c2)CN(C2CCC(=O)NC2=O)C3=O)CO1` (stereo partly shown) [Example 161], the DC50 in assay [1] is > 1000 nM. For the same compound, in assay [2], the maximal degradation (Dmax) is 88% and the DC50 was 95 nM.
Consider `O=C1CCC(N2Cc3cc(C[C@H]4C[C@@H](O)CC[C@@H]4NC4CCC(F)(F)CC4)ccc3C2=O)C(=O)N1` (stereo partly shown) [Example 162], for which, in assay [1], the Dmax came to 42% and the DC50 turned out to be 226 nM. Besides, in assay [2], the Dmax was found to be 93% and the DC50 came to 58 nM.
Take `O=C1CCC(N2Cc3cc(C[C@H]4CCC[C@H](O)[C@@H]4NC4CCC(F)(F)CC4)ccc3C2=O)C(=O)N1` (stereo partly shown) [Example 163]: the Dmax in assay [1] amounted to 45%; in assay [2], 95%. The DC50 amounted to 328 nM in assay [1] and 14 nM in assay [2].
Regarding `CO[C@@H]1CCC[C@H](Cc2ccc3c(c2)CN(C2CCC(=O)NC2=O)C3=O)[C@H]1NC1CCC(F)(F)CC1` (stereo partly shown) [Example 164], the DC50 in assay [1] is > 1000 nM. Besides, in assay [2], the Dmax was found to be 83% and the DC50 was determined as 17 nM.
In the case of `O=C1CCC(N2Cc3cc(C[C@H]4CCCC[C@@H]4NC4CCc5cn[nH]c5C4)ccc3C2=O)C(=O)N1` (stereo partly shown) [Example 165], the Dmax was determined as 28% in assay [1] and 98% in assay [2]. The figures for the DC50 in assay [1] and in assay [2] were 270 nM and 20 nM, respectively.
For the compound `CCCC(CCC)N[C@H]1CCCC[C@@H]1Cc1ccc2c(c1)CN(C1CCC(=O)NC1=O)C2=O` (stereo partly shown) [Example 166], the DC50 in assay [1] is > 1000 nM. For the same compound, in assay [2], the Dmax was 96% and the DC50 is 23 nM.
`O=C1CCC(N2Cc3cc(C[C@H]4CCCC[C@@H]4NC4CCC5(CCO5)CC4)ccc3C2=O)C(=O)N1` (stereo partly shown) [Example 171]: in assay [1], the Dmax is 37% and the DC50 was 198 nM. Further, in assay [2], the Dmax amounted to 98% and the DC50 was 26 nM.
For `O=C1CCC(N2Cc3cc(C[C@H]4CCCC[C@@H]4NC4CCC5(CCO5)CC4)ccc3C2=O)C(=O)N1` (stereo partly shown) [Example 172], in assay [1], the DC50 amounted to 203 nM and the “IKZF1 Dmax” value is on record as 28%. Besides, in assay [2], the DC50 turned out to be 19 nM and the “IKZF2 Dmax” value is listed as 98%.
For `O=C1CCC(N2Cc3cc(C[C@H]4CCCC[C@@H]4NCC45CC(c6ccccc6)(C4)C5(F)F)ccc3C2=O)C(=O)N1` (stereo partly shown) [Example 174], in assay [1], the DC50 is > 1000 nM. In assay [2], the Dmax stood at 86% and the DC50 was 67 nM.
On to `O=C1CCC(N2Cc3cc(C[C@H]4CCCC[C@@H]4NC4CCOc5ccccc54)ccc3C2=O)C(=O)N1` (stereo partly shown) [Example 175], for which, in assay [1], the Dmax amounted to 46% and the DC50 came out at 189 nM. In addition, in assay [2], the Dmax is 96% and the DC50 was 24 nM.
Consider `CCC(C)N[C@H]1CCCC[C@@H]1Cc1ccc2c(c1)CN(C1CCC(=O)NC1=O)C2=O` (stereo partly shown) [Example 176], for which the DC50 in assay [1] is > 1000 nM. For the same compound, in assay [2], the Dmax turned out to be 96% and the DC50 is 3 nM.
As for `O=C1CCC(N2Cc3cc(C[C@H]4CCCC[C@@H]4NC4Cc5ccccc5C4)ccc3C2=O)C(=O)N1` (stereo partly shown) [Example 177], the Dmax in assay [1] stood at 42%; in assay [2] it was 97%. In addition, the DC50 stood at 78 nM in assay [1] and 4 nM in assay [2].
Regarding `O=C1CCC(N2Cc3cc(C[C@H]4CCC[C@@H]4NC4CCC(F)(F)CC4)ccc3C2=O)C(=O)N1` (stereo partly shown) [Example 178], the DC50 in assay [1] is > 1000 nM. Also, in assay [2], the Dmax is 72% and the DC50 amounted to 168 nM.
For `O=C1CCC(N2Cc3cc(C[C@H]4OCCC[C@@H]4NC4CCCCC4)ccc3C2=O)C(=O)N1` (stereo partly shown) [Example 179], the DC50 in assay [1] was > 10000 nM. Moreover, in assay [2], the DC50 is 16 nM and the “IKZF2 Dmax” value was found to be 88%.
Consider `CC(C)N[C@H]1CCCO[C@@H]1Cc1ccc2c(c1)CN(C1CCC(=O)NC1=O)C2=O` (stereo partly shown) [Example 180], for which the DC50 in assay [1] is > 1000 nM. In addition, in assay [2], the Dmax is 85% and the DC50 came out at 39 nM.
With `CC(C)(CCN[C@H]1CCCC[C@@H]1Cc1ccc2c(c1)CN(C1CCC(=O)NC1=O)C2=O)C(F)(F)F` (stereo partly shown) [Example 182], in assay [1], the Dmax stood at 34% and the DC50 was determined as 43 nM. For the same compound, in assay [2], the Dmax was 94% and the DC50 was 9 nM.
In the case of `O=C1CCC(N2Cc3cc(C[C@H]4CCCC[C@@H]4NC4CCCCC4(F)F)ccc3C2=O)C(=O)N1` (stereo partly shown) [Example 183], the DC50 in assay [1] was > 1000 nM. In addition, in assay [2], the DC50 stood at 91 nM and the “IKZF2 Dmax” value stood at 81%.
Turning to `O=C1CCC(N2Cc3cc(C[C@H]4CCCC[C@@H]4NC4CC5CCC(C4)O5)ccc3C2=O)C(=O)N1` (stereo partly shown) [Example 184], in assay [1], the DC50 was 56 nM and the “IKZF1 Dmax” value was 30%. Also, in assay [2], the DC50 is 3 nM and the “IKZF2 Dmax” value worked out at 97%.
Turning to `CC(C)CC(C)N[C@H]1CCCC[C@@H]1Cc1ccc2c(c1)CN(C1CCC(=O)NC1=O)C2=O` (stereo partly shown) [Example 185], in assay [1], the DC50 was > 1000 nM. Besides, in assay [2], the Dmax was found to be 98% and the DC50 amounted to 6 nM.
As to `O=C1CCC(N2Cc3c(ccc(C[C@H]4CCCC[C@@H]4NCC4COC4)c3F)C2=O)C(=O)N1` (stereo partly shown) [Example 186], in assay [1], the DC50 is 88 nM and the “IKZF1 Dmax” value turned out to be 28%. For the same compound, in assay [2], the DC50 was 8 nM and the “IKZF2 Dmax” value is reported as 98%.
Turning to `O=C1CCC(N2Cc3c(ccc(C[C@H]4CCCC[C@@H]4NCC4CCOCC4)c3F)C2=O)C(=O)N1` (stereo partly shown) [Example 187], in assay [1], the DC50 was found to be 78 nM and the “IKZF1 Dmax” value was 37%. Besides, in assay [2], the DC50 is 8 nM and the “IKZF2 Dmax” value amounted to 96%.
On to `O=C1CCC(N2Cc3c(ccc(C[C@H]4CCCC[C@@H]4NC4CCOCC4)c3F)C2=O)C(=O)N1` (stereo partly shown) [Example 188], for which, in assay [1], the DC50 stood at 44 nM and the “IKZF1 Dmax” value came out at 34%. Besides, in assay [2], the DC50 amounted to 2 nM and the “IKZF2 Dmax” value stood at 98%.
As for `O=C1CCC(N2Cc3c(ccc(C[C@H]4CCCC[C@@H]4NC4CCOC4)c3F)C2=O)C(=O)N1` (stereo partly shown) [Example 189], in assay [1], the DC50 was found to be 39 nM and the “IKZF1 Dmax” value was 46%. Besides, in assay [2], the DC50 was 2 nM and the “IKZF2 Dmax” value is 97%.
Regarding `O=C1CCC(N2Cc3c(ccc(C[C@H]4CCCC[C@@H]4NC4CCOC4)c3F)C2=O)C(=O)N1` (stereo partly shown) [Example 190], in assay [1], the DC50 came to 57 nM and the “IKZF1 Dmax” value turned out to be 44%. For the same compound, in assay [2], the DC50 was determined as 2 nM and the “IKZF2 Dmax” value came to 97%.
